Data reported in patent US8673890B2, “2,3-dihydro-1H-isoindol-1-imine derivatives useful as thrombin PAR-1 receptor antagonist” (Janssen Pharmaceutica NV, priority 2009, dated 2014).
Several values for one entry are separate records, joined by “and”; a condition that tells them apart may be missing. Equal entries are not always repeated.

Tests used:
[1] = target: T1, thrombin receptor (PAR-1) (Homo sapiens, UniProt P25116); test: FLIPR-based calcium-flux assay with human smooth muscle cells (Har peptide agonist); format: cell-based; details: HSMC; 30 nM Har (PAR1) peptide agonist; 80-min drug incubation; multiple values = individual measurements
T1 construct: Human aortic smooth muscle cells (HSMC) were purchased from Cascade Biologics; host or cells: human aortic smooth muscle cells (HSMC)
T1 sequence (P25116 22-425): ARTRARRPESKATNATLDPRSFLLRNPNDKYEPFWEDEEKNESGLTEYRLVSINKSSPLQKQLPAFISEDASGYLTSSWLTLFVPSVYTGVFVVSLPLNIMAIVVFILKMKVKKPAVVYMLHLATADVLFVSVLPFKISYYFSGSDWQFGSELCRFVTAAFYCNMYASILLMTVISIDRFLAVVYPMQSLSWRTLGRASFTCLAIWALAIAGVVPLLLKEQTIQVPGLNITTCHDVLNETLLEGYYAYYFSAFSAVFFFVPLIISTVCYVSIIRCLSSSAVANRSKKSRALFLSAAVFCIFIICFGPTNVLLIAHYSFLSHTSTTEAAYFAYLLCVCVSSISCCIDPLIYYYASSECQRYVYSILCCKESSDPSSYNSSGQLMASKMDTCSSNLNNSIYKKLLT
Description: Human aortic smooth muscle cells (HSMC) were purchased from Cascade Biologics (Portland, Oreg.) and cultured in M-231 containing smooth muscle cell growth supplement and 1× Antibiotic-Antimycotic.
To determine agonist concentration for compound testing: On the day prior to the assay, 100 μL of cells (2×10^5/mL) were seeded in clear, flat-bottom black-wall, tissue culture treated polystyrene 96-well plates and incubated at 37° C., 5% CO2. On the day of the assay, 50 μL of complete dye loading solution (FLIPR Calcium 3 Kit, Molecular Devices) was added to each well containing 100 μL of culture media. The cells were incubated for 30-45 min at 37° C., in 5% CO2 before initiating the assay on the FLIPR. The agonist effect of PAR1 peptide (S-(p-F-Phe)-Har-L-Har-KY-NH2; Har=homoarginine; referred to herein as “Har” peptide) was tested and the EC50 was determined. The EC60-70 dose was used (30 nM) for compound testing.
Compound testing: On the day prior to the assay, 90 μL of cells (2.2×10^5/mL) were seeded in clear, flat-bottom black-wall, tissue culture treated polystyrene 96-well plates and incubated at 37° C., 5% CO2. On the day of the assay, the test compounds were prepared at 10× in 3% DMSO Hanks buffer and 10 μL was added to each well (final DMSO concentration of 0.3%). The cells were incubated 20 min at 37° C., 5% CO2. Culture medium containing testing compounds was dumped and the cells were washed four times with DPBS containing 0.1% of BSA and re-fed with 80 μL of growth medium. 70 μL of BD (fluorescent) dye was loaded to the cells and incubated 45 min at 37° C. incubator. The plates were equilibrated to room temperature for 15 min. 4× PAR1 peptide (30 nM final concentration) agonist plate and the cell plate were placed in FLIPR's assay chamber. 50 μL agonist was added to the cells and data was recorded for 5 min. Raw fluorescence data was exported for each well and tabulated versus time within an ASCII file. Data was then imported into Excel® and the peak response over basal level was determined. The percent inhibition for each test compound was calculated by the changes of fluorescent density as a % inhibition of the control Har peptide response to obtain an IC50.
Representative compounds of the present invention were tested according to the procedure described in Biological Example 1 above, with results in Table 8 below. In Table 8 below, where multiple values are listed for a particular compound, said numbers represent individual measurements (tests) for said compound.

[2] = test system: platelets in platelet-rich plasma; test: Har peptide-induced platelet aggregation in platelet-rich plasma; format: cell-based, human; details: for IC50: multiple values = individual measurements
Description: (§1) The procedure for this assay is similar to that described in Biological Example 2, above. Briefly, platelet aggregation studies were performed according to the method of Bednar et al. (Bednar, B., Condra, C., Gould, R. J., and Connolly, T. M., Thromb. Res., 77:453-463 (1995)). Platelet-rich plasma (PRP) concentrates prepared from healthy volunteers who were aspirin free for at least 7 days by venipuncture using EDTA as anticoagulant was purchased from Biological Specialties, Inc. (Colmar, Pa.). PPP (platelet-poor-plasma) was obtained by centrifugation of PRP at Max (3,000 rpms) for 15 min at room temperature. PRP was diluted to yield platelet count of 300×10^3 platelets/μL with PPP. For thrombin induced platelet aggregation: 118 μL of 500 mM GPRP-NH2 was added to 12 mL of 300×10^3 platelets before using (to clean the fibrinogen in the plasma.) GPRP was added just before the experiment. 15 μL of test compound solutions were added to 120 μL of platelets 5 min prior the agonist additions. Platelet aggregation was initiated by the addition of agonist shown to achieve 60-70% aggregation. Antagonist potency was estimated as a % inhibition of the control Har peptide or thrombin response to obtain an IC50.
(§2) Where multiple values are listed for a particular compound, said numbers represent individual measurements (tests) for said compound.

[3] = test system: platelets in platelet-rich plasma; test: Thrombin-induced platelet aggregation in platelet-rich plasma; format: cell-based, human; details: for IC50: multiple values = individual measurements
Description: as §1, §2

Compound	IC50 [1]	IC50 ([2]; Homo sapiens, Platelet)	IC50 [2]	IC50 ([3]; Homo sapiens, Platelet)	IC50 [3]	also measured
CC(C)(C)c1cc(C(=O)CN2Cc3cc4c(cc3C2=N)OCC(CCN2CCOCC2)CO4)cc(C(C)(C)C)c1O (centres unmarked) [Compound 12]	0.551 µM					
CC(C)(C)c1cc(C(=O)CN2Cc3cc4c(cc3C2=N)OCc2c(F)ccc(F)c2CO4)cc(C(C)(C)C)c1O [Compound 87]	0.043 µM and 0.02 µM	7380 nM	> 10000 nM	> 10000 nM	> 10000 nM	
CC(C)(C)c1cc(C(=O)CN2Cc3cc4c(cc3C2=N)OCC(F)(F)C(F)(F)CO4)cc(C(C)(C)C)c1O [Compound 91]	0.39 µM and 0.07 µM and 0.19 µM	12900 nM		> 10000 nM	> 10000 nM	inhibition at 10 µM ([2]; Homo sapiens, 10 μM compound): 26%
CC(C)(C)c1cc(C(=O)CN2Cc3cc4c(cc3C2=N)OCC(CC=O)CO4)cc(C(C)(C)C)c1O (centres unmarked) [Compound 14, 2-(8-(2-(3,5-di-tert-butyl-4-hydroxyphenyl)-2-oxoethyl)-7-imino-2,3,4,7,8,9-hexahydro-[1,4]dioxepino[2,3-f]isoindol-3-yl)acetaldehyde]	0.78 µM					
COC(=O)c1cc2c(cc1C(=O)OC)COc1cc3c(cc1OC2)CN(CC(=O)c1cc(C(C)(C)C)c(O)c(C(C)(C)C)c1)C3=N [Compound 102]	0.35 µM					
CNCCC1COc2cc3c(cc2OC1)C(=N)N(CC(=O)c1cc(C(C)(C)C)c(O)c(C(C)(C)C)c1)C3 (centres unmarked) [Compound 37]	> 3 µM					
COc1c(N2CCOCC2)cc(C(=O)CN2Cc3cc4c(cc3C2=N)OCc2c(F)ccc(F)c2CO4)cc1C(C)(C)C [Compound 88]	0.091 µM and 0.024 µM	1630 nM	1210 nM	3550 nM	2660 nM	
CC(C)(C)c1cc(C(=O)CN2Cc3cc4c(cc3C2=N)OCc2nccnc2CO4)cc(C(C)(C)C)c1O [Compound 77]	0.046 µM and 0.074 µM	630 nM	490 nM and 830 nM	1230 nM	1920 nM and 1550 nM	
CC(C)(C)c1cc(C(=O)CN2Cc3cc4c(cc3C2=N)OCC(CCN2CCCC2)CO4)cc(C(C)(C)C)c1O (centres unmarked) [Compound 13]	> 3 µM					
CC(C)(C)c1cc(C(=O)CN2Cc3cc4c(cc3C2=N)OCCCO4)cc(C(C)(C)C)c1O [Compound 4, 1-(3,5-di-tert-butyl-4-hydroxyphenyl)-2-(7-imino-3,4-dihydro-[1,4]dioxepino[2,3-f]isoindol-8(2H,7H,9H)-yl)ethanone]	0.13 µM and 0.068 µM					
CN1CCN(CCC2COc3cc4c(cc3OC2)C(=N)N(CC(=O)c2cc(C(C)(C)C)c(O)c(C(C)(C)C)c2)C4)CC1 (centres unmarked) [Compound 15]	> 3 µM					
COC(=O)c1ccc2c(c1)COc1cc3c(cc1OC2)CN(CC(=O)c1cc(C(C)(C)C)c(O)c(C(C)(C)C)c1)C3=N [Compound 55]			2430 nM and > 10000 nM and 11100 nM	> 10000 nM	> 10000 nM	
CC1(C)COc2cc3c(cc2OC1)C(=N)N(CC(=O)c1cc(C(C)(C)C)c(O)c(C(C)(C)C)c1)C3 [Compound 9]	0.16 µM					
CC(C)(C)c1cc(C(=O)CN2Cc3cc4c(cc3C2=N)OCc2ccc(C(=O)O)cc2CO4)cc(C(C)(C)C)c1O [Compound 81]	0.054 µM and 0.082 µM and 0.014 µM	> 10000 nM	> 10000 nM	> 10000 nM	> 10000 nM	
COc1c(N2CCOCC2)cc(C(=O)CN2Cc3cc4c(cc3C2=N)OC/C=C\CO4)cc1C(C)(C)C [Compound 97]	0.05 µM and 0.1 µM	1300 nM		2190 nM		
COc1c(N2CCOCC2)cc(C(=O)CN2Cc3cc4c(cc3C2=N)OCC(CCN2CCOCC2)CO4)cc1C(C)(C)C (centres unmarked) [Compound 43]	0.45 µM and 0.68 µM					
COc1c(N2CCOCC2)cc(C(=O)CN2Cc3cc4c(cc3C2=N)OCc2cc(F)c(F)cc2CO4)cc1C(C)(C)C [Compound 89]	0.29 µM and 0.13 µM	1280 nM	2310 nM	4880 nM	4610 nM and 6020 nM	
COC(=O)c1ccc2c(c1)COc1cc3c(cc1OC2)C(=N)N(CC(=O)c1cc(C(C)(C)C)c(O)c(C(C)(C)C)c1)C3 [Compound 80]	0.073 µM and 0.16 µM	> 10000 nM	13100 nM	> 10000 nM	> 10000 nM	
CC(C)(C)c1cc(C(=O)CN2Cc3cc4c(cc3C2=N)OCCCCO4)cc(C(C)(C)C)c1O [Compound 5]	0.032 µM					
COc1c(N2CCOCC2)cc(C(=O)CN2Cc3cc4c(cc3C2=N)OCC(CCN2CCSC2)CO4)cc1C(C)(C)C (centres unmarked) [Compound 45]	0.15 µM and 0.18 µM					
COc1c(Br)cc(C(=O)CN2Cc3cc4c(cc3C2=N)OCc2ncccc2CO4)cc1C(C)(C)C [Compound 54]	1.1 µM and > 3 µM and 0.75 µM					
CC(C)(C)c1cc(C(=O)CN2Cc3cc4c(c(F)c3C2=N)OCc2ccccc2CO4)cc(C(C)(C)C)c1O [Compound 96]	0.031 µM and 0.015 µM	1570 nM	2300 nM	3230 nM	3250 nM	
CC(C)(C)c1cc(C(=O)CN2Cc3cc4c(cc3C2=N)OCc2cccnc2CO4)ccc1O [Compound 83]	0.24 µM and 0.35 µM		840 nM and 1750 nM	> 10000 nM	> 10000 nM	
Cc1cc2c(cc1C)COc1cc3c(cc1OC2)CN(CC(=O)c1cc(C(C)(C)C)c(O)c(C(C)(C)C)c1)C3=N [Compound 99]	0.092 µM and 0.22 µM	> 10000 nM				inhibition at 10 µM ([3]; Homo sapiens, 10 μM compound): 23%
COc1c(N2CCOCC2)cc(C(=O)CN2Cc3cc4c(cc3C2=N)OCCN(C(=O)OC(C)(C)C)CCO4)cc1C(C)(C)C [Compound 41, tert-butyl 10-(2-(3-tert-butyl-4-methoxy-5-morpholinophenyl)-2-oxoethyl)-9-imino-2,3,5,6,10,11-hexahydro-[1,4,7]dioxazonino[2,3-f]isoindole-4(9H)-carboxylate]	0.54 µM and > 1 µM and 1.2 µM					
COc1c(N2CCOCC2)cc(C(=O)CN2Cc3cc4c(cc3C2=N)OCC(CC2NCCS2)CO4)cc1C(C)(C)C (centres unmarked) [Compound 44]	0.1 µM and 0.12 µM					
COC(=O)c1cc2c(cc1C(=O)OC)COc1cc3c(cc1OC2)CN(CC(=O)c1cc(N2CCOCC2)c(OC)c(C(C)(C)C)c1)C3=N [Compound 103]	1.1 µM					
CN(C)CCC1COc2cc3c(cc2OC1)C(=N)N(CC(=O)c1cc(C(C)(C)C)c(O)c(C(C)(C)C)c1)C3 (centres unmarked) [Compound 16, 1-(3,5-di-tert-butyl-4-hydroxyphenyl)-2-(3-(2-(dimethylamino)ethyl)-7-imino-3,4-dihydro-[1,4]dioxepino[2,3-f]isoindol-8(2H,7H,9H)-yl)ethanone]	> 1 µM					
COc1c(N2CCOCC2)cc(C(=O)CN2Cc3cc4c(cc3C2=N)OCCNCCO4)cc1C(C)(C)C [Compound 42, 1-(3-tert-butyl-4-methoxy-5-morpholinophenyl)-2-(9-imino-3,4,5,6-tetrahydro-[1,4,7]dioxazonino[2,3-f]isoindol-10(2H,9H,11H)-yl)ethanone]	0.66 µM and > 1 µM and 1.3 µM					
CC(C)(C)c1cc(C(=O)CN2Cc3cc4c(cc3C2=N)OCc2cccnc2CO4)cc(C(C)(C)C)c1O [Compound 48]	0.044 µM and 0.053 µM					
